# Data reported in patent US8440633B2, “Anthelmintic combination” (AH USA 42 LLC, priority 2007, dated 2013).
# Legend:
# Assay type in all cases: in vivo
# [1] = system: Haemonchus contortus; assay: Total worm count, resistant strains in sheep (Example 3); settings: for % efficacy (arithmetic mean): doses as the 6th table, Day 15
# Description: (§1) Sheep were artificially infected with infective L3 larvae in a mixed culture containing Haemonchus contortus, Teladorsagia spp and Trichostrongylus spp, and efficacy was measured by total worm counts in the treatment group compared to the control group following administration of treatment. The animals were treated as outlined below with the commercially available reference products included to confirm the resistance profile of the above parasites.
# (§2) All study animals were necropsied on Day 15 after treatment. Abomasa and small intestines were collected for worm recovery and total worm count estimations.
# [2] = system: Trich. colubriformis; assay: as above; settings: for % efficacy (arithmetic mean): doses as the 6th table, Day 15
# Description: as §1, §2
# [3] = system: Teladorsagia spp (total); assay: as above; settings: for % efficacy (arithmetic mean): doses as the 6th table, Day 15, NEG = negative efficacy
# Description: as §1, §2
# [4] = system: Trichostrongylus colubriformis; assay: Total worm count, resistant strains in sheep (Example 2); settings: for % efficacy (arithmetic mean): doses as the 4th table, Day 15
# Description: (§3) Sheep were artificially infected with L3 larvae of Teladorsagia (Ostertagia) circumcincta and Trichostrongylus colubriformis and efficacy was measured by total worm counts in the treatment group compared to the control group following administration of treatment.
# as §2
# [5] = system: Teladorsagia trifurcata; assay: as above; settings: for % efficacy (arithmetic mean): doses as the 4th table, Day 15, NEG = negative efficacy, mean count higher than control
# Description: as §3, §2
# [6] = system: Teladorsagia circumcincta; assay: as above; settings: for % efficacy (arithmetic mean): doses as the 4th table, Day 15, NEG = negative efficacy, mean count higher than control
# Description: as §3, §2
# [7] = Example 3, resistant Haemonchus contortus
# [8] = Example 3, resistant Trich. colubriformis
# [9] = Example 3, resistant Teladorsagia spp (total)
# [10] = Example 2, resistant Trichostrongylus colubriformis
# [11] = Example 2, Teladorsagia trifurcata
# [12] = Example 2, resistant Teladorsagia circumcincta
# [13] = Example 3, resistant Haemonchus contortus, per os once Day 0 (2-DOPH 2 + abamectin 0.2; albendazole 3.8; levamisole 8; ivermectin 0.2 mg/kg), necropsy Day 15
# [14] = Example 3, resistant Trich. colubriformis, per os once Day 0 (2-DOPH 2 + abamectin 0.2; albendazole 3.8; levamisole 8; ivermectin 0.2 mg/kg), necropsy Day 15
# [15] = Example 3, resistant Teladorsagia spp (total), per os once Day 0 (2-DOPH 2 + abamectin 0.2; albendazole 3.8; levamisole 8; ivermectin 0.2 mg/kg), necropsy Day 15
# [16] = Example 2, resistant Trichostrongylus colubriformis, per os once Day 0 (2-DOPH 2 + abamectin 0.2; albendazole 3.8; levamisole 8; ivermectin 0.2 mg/kg), necropsy Day 15
# [17] = Example 2, Teladorsagia trifurcata, per os once Day 0 (2-DOPH 2 + abamectin 0.2; albendazole 3.8; levamisole 8; ivermectin 0.2 mg/kg), necropsy Day 15
# [18] = Example 2, resistant Teladorsagia circumcincta, per os once Day 0 (2-DOPH 2 + abamectin 0.2; albendazole 3.8; levamisole 8; ivermectin 0.2 mg/kg), necropsy Day 15
compound,measurement,setting,value
CCCSc1ccc2nc(NC(=O)OC)[nH]c2c1 [Albendazole],% efficacy (arithmetic mean),[1]; [7],80.57%
same,Arithmetic Mean (total worm count),[1]; in vivo,164.0
same,Prevalence (total worm count),[1]; in vivo,8/10
same,Range (total worm count),[1]; in vivo,0-320
same,% efficacy (arithmetic mean),[2]; [8],25.00%
same,Arithmetic Mean (total worm count),[2]; in vivo,3828.0
same,Prevalence (total worm count),[2]; in vivo,10/10
same,Range (total worm count),[2]; in vivo,2600-5160
same,% efficacy (arithmetic mean),[3]; [9],58.16%
same,Arithmetic Mean (total worm count),[3]; in vivo,590.0
same,Prevalence (total worm count),[3]; in vivo,10/10
same,Range (total worm count),[3]; in vivo,160-1200
same,% efficacy (arithmetic mean),[4]; [10],56.44%
same,Arithmetic Mean (total worm count),[4]; in vivo,1812.0
same,Prevalence (total worm count),[4]; in vivo,10/10
same,Range (total worm count),[4]; in vivo,1320-2660
same,% efficacy (arithmetic mean),[5]; [11],NEG^
same,Arithmetic Mean (total worm count),[5]; in vivo,281.6
same,Prevalence (total worm count),[5]; in vivo,7/10
same,Range (total worm count),[5]; in vivo,0-712
same,% efficacy (arithmetic mean),[6]; [12],NEG^
same,Arithmetic Mean (total worm count),[6]; in vivo,2184.4
same,Prevalence (total worm count),[6]; in vivo,10/10
same,Range (total worm count),[6]; in vivo,80-3708
c1ccc([C@H]2CN3CCSC3=N2)cc1 [Levamisole],% efficacy (arithmetic mean),[1]; [7],99.76%
same,Arithmetic Mean (total worm count),[1]; [13],2.0
same,Prevalence (total worm count),[1]; [13],1/10
same,Range (total worm count),[1]; [13],0-20
same,% efficacy (arithmetic mean),[2]; [8],15.34%
same,Arithmetic Mean (total worm count),[2]; [14],4320.7
same,Prevalence (total worm count),[2]; [14],10/10
same,Range (total worm count),[2]; [14],2120-5800
same,% efficacy (arithmetic mean),[3]; [9],96.31%
same,Arithmetic Mean (total worm count),[3]; [15],52.0
same,Prevalence (total worm count),[3]; [15],8/10
same,Range (total worm count),[3]; [15],0-160
same,% efficacy (arithmetic mean),[4]; [10],84.31%
same,Arithmetic Mean (total worm count),[4]; [16],652.6
same,Prevalence (total worm count),[4]; [16],9/9
same,Range (total worm count),[4]; [16],300-1500
same,% efficacy (arithmetic mean),[5]; [11],84.08%
same,Arithmetic Mean (total worm count),[5]; [17],36.7
same,Prevalence (total worm count),[5]; [17],4/9
same,Range (total worm count),[5]; [17],0-180
same,% efficacy (arithmetic mean),[6]; [12],82.67%
same,Arithmetic Mean (total worm count),[6]; [18],292.8
same,Prevalence (total worm count),[6]; [18],7/9
same,Range (total worm count),[6]; [18],0-1020
Ivermectin,% efficacy (arithmetic mean),[1]; [7],47.63%
same,Arithmetic Mean (total worm count),[1]; in vivo,442.0
same,Prevalence (total worm count),[1]; in vivo,8/10
same,Range (total worm count),[1]; in vivo,0-940
same,% efficacy (arithmetic mean),[2]; [8],11.63%
same,Arithmetic Mean (total worm count),[2]; in vivo,4510.0
same,Prevalence (total worm count),[2]; in vivo,10/10
same,Range (total worm count),[2]; in vivo,3140-5920
same,% efficacy (arithmetic mean),[3]; [9],NEG
same,Arithmetic Mean (total worm count),[3]; in vivo,1680.0
same,Prevalence (total worm count),[3]; in vivo,10/10
same,Range (total worm count),[3]; in vivo,280-3800
same,% efficacy (arithmetic mean),[4]; [10],55.29%
same,Arithmetic Mean (total worm count),[4]; in vivo,1860.0
same,Prevalence (total worm count),[4]; in vivo,10/10
same,Range (total worm count),[4]; in vivo,400-4060
same,% efficacy (arithmetic mean),[5]; [11],15.49%
same,Arithmetic Mean (total worm count),[5]; in vivo,194.8
same,Prevalence (total worm count),[5]; in vivo,7/10
same,Range (total worm count),[5]; in vivo,0-459
same,% efficacy (arithmetic mean),[6]; [12],NEG^
same,% efficacy (arithmetic mean),"[6]; Example 2, resistant Teladorsagia circumcincta, listed as ivermectin",zero
same,Arithmetic Mean (total worm count),[6]; in vivo,2093.2
same,Prevalence (total worm count),[6]; in vivo,10/10
same,Range (total worm count),[6]; in vivo,680-3600
